Assay results reported in patent US20160083424A1, “COMPOSITIONS AND METHODS FOR TARGETING ANTIGEN-PRESENTING CELLS” (OSLO UNIVERSITETSSYKEHUS HF, priority 2013, published 2016).
Where no end group is shown, it is not given here. siRNA = not defined here

Key:
iDCs [1] = experiment: Binding and internalization of peptide-siRNA conjugates by microscopy; assay type: cell-based, human
Description: Then the medium was replaced with fresh medium and the cells were incubated with the peptides (5 μg/ml) for 60 min at 37° C. followed by 5 min incubation with Hoechst 33342 (Invitrogen Dynal AS, Oslo, Norway). The cells were washed twice with PBS and fixed with 4% paraformaldehyde for 15 min at 4° C. After washing, slides were covered with Dako cytomation fluorescent mounting medium and then images were taken with either epifluorescence (Leica DM RHC, Leica Microscopy As, Oslo, Norway) or confocal microscopy (Zeiss LSM 510, […]).
One of the major challenges to the clinical development of gene silencing by small interfering RNA (siRNA) is its effective delivery to target cells (Whitehead et al., Nat Rev Drug Discov 8, 129-138). Given the effective internalization of NW peptide by DCs, its potential to direct siRNAs to DCs was evaluated. First, a fluorescence labeled siRNA targeting mouse IL-10 was covalently conjugated to the NW-peptide (NW peptide with GGGSC (SEQ ID NO:43) linker) through a thiol linkage and then the binding of the conjugates to iDCs was investigated by epifluorescence microcopy. In contrast to free siRNA molecules, the peptide siRNA conjugates bound to DCs (FIG. 10A).

Monocytes = experiment: Competition of NW phage binding by NW peptide and its mutant peptides; set-up: species or system human; details: for competition with NW phage binding / peptide binding to monocytes: mutant peptides, four concentrations (0.4, 2, 8, 20 μM)
Description: (§1) In brief, aliquots of DCs (10^5) were divided into conical 96-well micro-plate, washed with PBS buffer containing 1% FCS, and then incubated with the amplified phages (≈10^9 TU) for 30-60 min on ice. After washing, cells were incubated with biotinylated anti-M13 monoclonal antibody (Abcam) and then with phycoerythrin (PE)-conjugated streptavidin. Competition assays were performed by pre-incubating DCs with different amounts of the peptides for 15 min on ice. Then NW phage (≈10^9 TU) was added and samples incubated for additional 60 min on ice. After washing, bound phages were detected as indicated above. Samples were analyzed by FACSCanto II flow cytometry.
To uncover the contribution of individual side chains and identify which amino acids are responsible for the NW peptide binding to monocytes and dendritic cells, alanine scanning was performed. Derivatives of the NW peptide were synthesized with exchange of each amino acid by alanine (FIG. 11A). These peptide derivatives were used to compete with the NW phage binding to monocytes. For each peptide, four concentrations were tested. Bound phage particles were detected with the use of biotin conjugated anti-M13 antibody and PE-conjugated streptavidin. The NW peptide (WT) competed effectively with the phage binding to monocytes with an IC50 of approximately 0.5 uM. The replacement of tryptophan (W) at position 2, 6, or 12 by a single alanine abolished the binding. Indeed, no significant competition with the phage binding was seen even at high peptide concentrations (C4=20 uM). Similarly, replacement of leucine (L) at position 4 or 7 by alanine inhibited the peptide binding (FIG. 11B).

iDCs [2] = experiment: Phage binding by flow cytometry; set-up: species or system human; details: binding of the phage clones to iDC, flow cytometry
Description: as §1

iDCs [3] = experiment: Peptide binding by flow cytometry; set-up: species or system human
Description: The cells were seeded onto 24-well plate (3×10^5/well/0.5 ml) in X-vivo 15 medium and incubated overnight at 37° C. Subsequently, they were incubated with 6IAF-conjugated peptides (5 μg/ml) for 30 min at 37° C., gently scraped, washed 3 times and then analyzed by flow cytometry. Binding was also performed at 4° C.

iDC = experiment: Competition of NW phage binding by synthetic peptides; set-up: species or system human
Description: as §1
To further investigate the importance of the NW peptide on phage binding, competition experiments were performed using synthetic peptides.

[4] = test system: autologous CD4 or CD8 T cells; experiment: Autologous stimulation of T lymphocytes by DCs exposed to targeted pp65 peptides, [3H] thymidine incorporation; assay type: cell-based, human; details: semi mDCs loaded at 4° C., HLA-A2+/CMV positive donors, 5 days
Description: (§2) Peptides at a concentration of 5 μg/ml were incubated with semi mDCs from HLA-A2/CMV-positive donors for 60 min at 4° C. Subsequently, they were washed to remove unbound peptides. Autologous stimulation was done in 96-well tissue culture plates in X-vivo 15 medium. Briefly, DCs were mixed with 10^5 autologous CD4 or CD8 T cells at a DC/lymphocytes ratios of 1/5 and 1/10 in a final volume of 250 μl. Cells were incubated for 5 days and then they were pulsed with [^3H] thymidine and harvested 16 h later. [^3H] thymidine incorporation was measured in a β-scintillation counter. In some experiments, the cells were cultured for 8 days and then stained with dextramers specific for pp65 NLVPMVATV (SEQ ID NO:19) epitope.
The capacity of the NW-pp65 fusion peptide (60-mer) to activate T cells from HLA-A2+/CMV positive donors was evaluated. It should be noted that the 48-mer pp65 peptide contains both MHC class I (e.g. NLVPMVATV) (SEQ ID NO:19) and class II (e.g. AGILARNLVPMVATV (SEQ ID NO:23), FFWDANDIYRI (SEQ ID NO:24)) epitopes, allowing the detection of CD4 and CD8 T-cell responses (24-26). […] All cultures were incubated at 37° C. for 5 days and T-cell activation was determined by measuring their proliferation potential (FIG. 6A). […]

[5] = test system: CD8 T cells specific for the NLVPMVATV epitope; experiment: Dextramer staining of CD8 T cells after stimulation with peptide-exposed DCs; assay type: cell-based, human; details: DC-stimulated CD8 T cells, CMV positive donors, equal molar concentrations, n=3
Description: as §2
Dextramers with CMV (NLVPMVATV) (SEQ ID NO:19) and HIV (ILKEPVHGV) (SEQ ID NO:22) HLA-A2 specific antigens were obtained from Immudex (Copenhagen, Denmark). Antibodies against human CD8, CD19 and CD56 were obtained from eBioscience (San Diego, Calif., USA). […] Cells were washed and resuspended in SB containing 1% paraformaldehyd and analyzed on a BD SLR II flow cytometer. The data were analyzed using FCS Express (De Novo Software, Los Angeles, Calif., USA).

[6] = test system: pp65-specific naïve T cells; experiment: Induction of CMV-pp65-specific T cells from naive donor repertoire, dextramer staining; assay type: cell-based, human; details: CD45RO-depleted PBMCs, HLA-A2+/CMV negative donors, IL-7, representative example
Description: (§3) PBMC from HLA-A2/CMV+ donors were thawed, washed and then incubated with the peptides (5 μg/ml) for 60 min at 4° C. Subsequently, the cells were washed twice and then plated at 2×10^5 cells per well in 96-well tissue culture plate. Cells were cultured for 5 days and subsequently they were pulsed with [^3H] thymidine and harvested 16 h later. In some experiments, the cells were cultured for 12 days and then stained with dextramers specific for pp65 NLVPMVATV (SEQ ID NO:19) epitope. Monocyte-depleted PBMCs were also used. To analyze primary immune responses against pp65 protein, PBMCs from HLA-A2+/CMV-negative donors were used. Autologous DCs were incubated with either NW-pp65 or GA-pp65 peptide (5 μg/ml) at 4° C. for 1 h, followed by three washes to remove unbound peptides. Subsequently, the cells were incubated with CD45RO-depleted PBMC (responder cells) and co-cultured for 10 days at ratio 1/10 (DC to responder cells) in X-vivo 15 medium supplemented with 10 ng/ml human IL-7 for 10 days. […]
Dextramers with CMV (NLVPMVATV) (SEQ ID NO:19) and HIV (ILKEPVHGV) (SEQ ID NO:22) HLA-A2 specific antigens were obtained from Immudex (Copenhagen, Denmark). […] Cells were washed and resuspended in SB containing 1% paraformaldehyd and analyzed on a BD SLR II flow cytometer. The data were analyzed using FCS Express (De Novo Software, Los Angeles, Calif., USA). […]

PBMCs = experiment: Autologous stimulation of PBMCs with pp65 targeted peptides, [3H] thymidine incorporation; assay type: cell-based, human; details: whole PBMCs, peptides at 4° C., 5 days at 37° C.
Description: as §3, with “days. After 2 rounds of stimulation (8 days each) with autologous DC loaded with peptides, the cells were stained with dextramers specific for pp65 NLVPMVATV (SEQ ID NO:19) epitope. To test spontaneous uptake of peptides by DCs, PBMCs from HLA-A2+/CMV positive donors were incubated at 37° C. with various concentrations of untargeted or targeted pp65 peptide for 90 min.” for “days.”

[7] = test system: CD8 T cells against NLVPMVATV epitope; experiment: Dextramer staining of CD8 T cells after PBMC stimulation with pp65 peptides; assay type: cell-based, human
Description: PBMC from HLA-A2/CMV+ donors were thawed, washed and then incubated with the peptides (5 μg/ml) for 60 min at 4° C. Subsequently, the cells were washed twice and then plated at 2×10^5 cells per well in 96-well tissue culture plate. Cells were cultured for 5 days and subsequently they were pulsed with [^3H] thymidine and harvested 16 h later. In some experiments, the cells were cultured for 12 days and then stained with dextramers specific for pp65 NLVPMVATV (SEQ ID NO:19) epitope. Monocyte-depleted PBMCs were also used. To analyze primary immune responses against pp65 protein, PBMCs from HLA-A2+/CMV-negative donors were used. Autologous DCs were incubated with either NW-pp65 or GA-pp65 peptide (5 μg/ml) at 4° C. for 1 h, followed by three washes to remove unbound peptides. Subsequently, the cells were incubated with CD45RO-depleted PBMC (responder cells) and co-cultured for 10 days at ratio 1/10 (DC to responder cells) in X-vivo 15 medium supplemented with 10 ng/ml human IL-7 for 10 days. After 2 rounds of stimulation (8 days each) with autologous DC loaded with peptides, the cells were stained with dextramers specific for pp65 NLVPMVATV (SEQ ID NO:19) epitope. To test spontaneous uptake of peptides by DCs, PBMCs from HLA-A2+/CMV positive donors were incubated at 37° C. with various concentrations of untargeted or targeted pp65 peptide for 90 min. Subsequently, the cells were washed to remove unbound peptides and cultured at 37° C. for 12 days and then stained with dextramers specific for pp65 NLVPMVATV (SEQ ID NO:19) epitope.
Dextramers with CMV (NLVPMVATV) (SEQ ID NO:19) and HIV (ILKEPVHGV) (SEQ ID NO:22) HLA-A2 specific antigens were obtained from Immudex (Copenhagen, Denmark). Antibodies against human CD8, CD19 and CD56 were obtained from eBioscience (San Diego, Calif., USA). Briefly, around 10^6 cells were washed and resuspended in 50 μl staining buffer SB (PBS with 0.1% human serum albumin and 0.1% NaN3) containing 1 mg/ml aggregated α-globulin and then stained with dextramer for 10 min in the dark at room temperature. Subsequently, antibodies against CD8, CD19 and CD56 were added and incubation continued for additional 20 min. Cells were washed and resuspended in SB containing 1% paraformaldehyd and analyzed on a BD SLR II flow cytometer. The data were analyzed using FCS Express (De Novo Software, Los Angeles, Calif., USA).
Monocytes have the capacity to differentiate into macrophages or inflammatory DCs in-vitro and in-vivo (Auffray et al., (2009) Annu Rev. Immunol. 27, 669-92). Given that the NW peptide bound to blood monocytes, it was investigated whether this binding affects T-cell activation. Therefore, proliferation assays were performed with whole PBMCs. […]

[8] = test system: PBMC cultures from CMV-positive donors; experiment: IFN-γ production in PBMC cultures; assay type: cell-based, human; details: PBMCs from HLA-A2+/CMV positive
Description: (A) PBMCs from HLA-A2+/CMV-positive donors were incubated with the indicated fusion peptides for 60 min at 4° C., washed and then incubated at 37° C. for […]. T-cell proliferation was monitored by thymidine incorporation. (B) Dextramer staining of CD8 T cells against NLVPMVATV (SEQ ID NO:19) epitope. (C) As in A and B, but monocyte-depleted PBMCs were used. (D) INF-γ and IL-10 levels in PBMC culture supernatants determined by ELISA.
Next, the immunostimulatory potential of the NW-pp65 fusion peptide was evaluated by assessing its ability to stimulate the overall IFN-γ and IL-10 production in PBMC cultures from CMV-positive donors (FIG. 8D).

peptide siRNA conjugates: fluorescence labeled siRNA targeting mouse IL-10 covalently conjugated to NW peptide with GGGSC linker through a thiol linkage (NWYLPWLGTNDWGGGSC(siRNA); not fully specified; reading uncertain)
intracellular delivery of peptide-siRNA conjugates (iDCs [1]; confocal microscopy): confirmed the intracellular delivery
binding of peptide siRNA conjugates to DCs (iDCs [1]; epifluorescence microscopy, iDCs): bound to DCs

Deletion of N10D11: NW peptide with N10 and D11 deleted; likely NWYLPWLGTW (SEQ ID NO:38)
reduction in IC50 relative to NW peptide (Monocytes; monocytes): approximately 20 fold
competition with NW phage binding / peptide binding to monocytes (Monocytes): reduced the binding

QLPRTAL [DC10]
Binding (iDCs [2]): +++ (binding <80%: +++)

SPGLSLVSHMQT [DC13]
Binding (iDCs [2]): +++ (binding <80%: +++)

NWYLPWLGTNDWAGILARNLVPMVATVQGQNLC [NW-33-mer, CMV pp65 peptide fused to NW peptide]
binding of 6IAF-conjugated pp65 fusion peptides to DCs (iDCs [3]; iDCs): bound to iDCs

QWELPWLMQPPL [DC6]
Binding (iDCs [2]): ++++ (Binding >80-100%: ++++)

GALDTTHHRPWTC [control peptide, irrelevant control peptide, reference compound]
binding of 6-IAF-conjugated peptides to iDCs (iDCs [3]; 4° C. and 37° C.): no significant binding
inhibition of the phage binding to iDC by synthetic peptides (iDC): but not an irrelevant control peptide, effectively inhibited

GALDTTHHRPWTGCFTWPPWQAGILARNLVPMVATVQGQNLKYQEFFWDANDIYRIFAEL [GA-60-mer, 48-mer CMV pp65 peptide fused to control peptide, reference compound]
T-cell activation (proliferation, [3H]-thymidine) [4]: no significant effect
dextramer-positive CD8 T cells specific for NLVPMVATV [5]: 0.51%
pp65-specific naïve T cells (dextramer staining) [6]: 0.01%
T-cell proliferation ([3H]-thymidine) (PBMCs): did not
CTL response (dextramer staining) ([7]; monocyte-depleted PBMCs): 0.53%
CTL response (dextramer staining) ([7]; whole PBMCs, n=3): 0.45%
proportion of CD8 and CD4 T cells that produced IFN-γ [8]: very low response

N10D11 double mutant: NW peptide with asparagine 10 and aspartic acid 11 both replaced by alanine (NWYLPWLGTAAW)
mean fluorescence of bound phage (Monocytes; at C3 concentration (8 μM), unstained cells 250): ~250
competition with NW phage binding / peptide binding to monocytes (Monocytes): effectively competed

GETRAPL [DC19]
Binding (iDCs [2]): +++ (binding <80%: +++)

NWYGAGAGTNDW [NW-mutant, NW-peptide lacking the motif LPWL]
inhibition of the phage binding to iDC by synthetic peptides (iDC): failed to reduce binding
